# From patent publication US20210087167A1, “ASK1 INHIBITOR COMPOUNDS AND USES THEREOF” (SEAL ROCK THERAPEUTICS, INC., priority 2017, published 2021)
# Legend:
# [1] = tested on: LPS-induced TNFalpha in human PBMCs; experiment: Inhibition of LPS-induced TNFalpha in human PBMCs (ELISA); assay type: cell-based; details: PBMC, 100 ng/ml LPS, 6 hr, read-out: TNFa Inhibition IC50
# Experimental: Cryopreserved human PBMCs were obtained from AllCells (cat #PB003F). After thawing/dilution protocols using RPMI medium supplemented with 5% FBS (heat inactivated), 100 ul/well of 1×10^6 cells/ml were plated into 96 well tissue culture plates (Corning). Cells were then pre-incubated for 1 hr at 37° C. in humidified 5% CO2 and 95% air with test compounds diluted in DMSO (final DMSO concentration 0.3%). Each compound was tested at 10 concentrations in duplicate wells. After the pre-incubation, 100 ng/ml LPS (E. Coli; Sigma) in RPMI media with 5% FBS was added for a 6 hr incubation at 37° C. in humidified 5% CO2 and 95% air. Controls on each plate included cells and LPS only, cells and media only (no LPS), and media only. After the 6 hr incubation, plates were centrifuged and the supernatants transferred to a new plate and frozen for subsequent TNFalpha analysis. Human TNFalpha was analyzed by ELISA according to the manufacturer's instructions (BD Sciences, BD OptEIAm Cat #550610) and analyzed on a SpectraMax M series (Molecular Devices) microplate reader at OD 450 nm. IC50s were calculated using XLFit4 curve fitting software (IDBS) and a 4-parameter one-site sigmoid dose response fit.
# ASK1 = target: T1, ASK1 (Homo sapiens, UniProt Q99683); experiment: ASK1 Kinase Assay (Promega ASK1 Kinase Enzyme System, ADP-Glo); assay type: biochemical; details: enzyme 50 nM, myelin basic protein 1 μg/ml, ATP 10 μM
# T1 construct: purchased Promega V3881
# T1 sequence (Q99683 649-946 limits assumed): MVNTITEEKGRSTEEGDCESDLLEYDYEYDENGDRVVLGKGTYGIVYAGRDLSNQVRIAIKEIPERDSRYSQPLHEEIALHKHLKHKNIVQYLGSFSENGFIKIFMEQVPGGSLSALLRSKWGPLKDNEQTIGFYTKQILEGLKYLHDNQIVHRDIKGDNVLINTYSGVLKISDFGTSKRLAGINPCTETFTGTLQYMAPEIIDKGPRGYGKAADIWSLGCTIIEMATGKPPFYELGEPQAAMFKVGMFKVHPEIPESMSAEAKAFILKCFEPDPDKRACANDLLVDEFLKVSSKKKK
# Experimental: The ASK1 enzymatic assay was run following Promega ASK1 Kinase Enzyme System (Cat #V3881). The kit provides the protocol, enzymes and all reagents necessary to run an assay.
# Firstly, the compounds, enzyme, substrate and ATP were diluted in provided assay buffer. The final concentration of the enzyme was 50 nM, substrate (Myelin basic protein) 1 μg/ml and ATP 10 μM. The compound and the enzyme were pre-incubated in a 384 well white solid bottom plate (Greiner, Cat #784075) for 10 minutes. After incubation, the substrate and ATP were added and incubated for further 60 minutes. After 60 minutes, ADP-Glo™ was added and plate was incubated for another 40 minutes. After 40 minutes, Kinase Detection Reagent was added and the plate was incubated for 45 minutes. After 45 minutes, plate was read on Perkin Elmer EnVision using luminescence read (0.5 seconds/well).
IC50 (ASK1) [µM],Molecule,IC50 [1] [µM]
–,"O=C(c1ccc2c(c1)CN(c1cccc(-c3nncn3C3CC3)n1)C2=O)N1CCC(O)CC1 [Compound 12, 2-(6-(4-cyclopropyl-4H-1,2,4-triazol-3-yl)pyridin-2-yl)-5-(4-hydroxypiperidine-1-carbonyl)isoindolin-1-one]",> 10
–,"CC1(O)CCN(C(=O)c2ccc3c(c2)CN(c2cccc(-c4nncn4C4CC4)n2)C3=O)CC1 [Compound 13, 2-(6-(4-cyclopropyl-4H-1,2,4-triazol-3-yl)pyridin-2-yl)-5-(4-hydroxy-4-methylpiperidine-1-carbonyl)isoindolin-1-one]",> 10
–,"CC(=O)NC1CCN(C(=O)c2ccc3c(c2)CN(c2cccc(-c4nncn4C4CC4)n2)C3=O)CC1 [Compound 17, N-(1-(2-(6-(4-cyclopropyl-4H-1,2,4-triazol-3-yl)pyridin-2-yl)-1-oxoisoindoline-5-carbonyl)piperidin-4-yl)acetamide]",> 10
0.2 to 1,"O=C(Nc1cc2c(cc1F)CN(c1cccc(-c3nncn3C3CC3)n1)C2=O)C1CC1 [Compound 75, N-(2-(6-(4-cyclopropyl-4H-1,2,4-triazol-3-yl)pyridin-2-yl)-6-fluoro-3-oxoisoindolin-5-yl)cyclopropanecarboxamide]",–
< 0.2,Cn1ccc(-c2ccc3c(c2)CN(c2cccc(-c4nncn4C4CC4)n2)C3=O)n1 [Compound 27],–
< 0.2,"2-(6-(4-cyclopropyl-4H-1,2,4-triazol-3-yl)pyridin-2-yl)-5-isopropoxy-6-(pyridin-3-yl)isoindolin-1-one [Compound 70]",–
–,"O=C(c1ccc2c(c1)CN(c1cccc(-c3nncn3C3CC3)n1)C2=O)N1CCOCC1 [Compound 7, 2-(6-(4-cyclopropyl-4H-1,2,4-triazol-3-yl)pyridin-2-yl)-5-(morpholine-4-carbonyl)isoindolin-1-one]",> 10
–,"O=C1c2cc(-c3cnc(C4CC4)cn3)ccc2CN1c1cccc(-c2nncn2C2CC2)n1 [Compound 60, 2-(6-(4-cyclopropyl-4H-1,2,4-triazol-3-yl)pyridin-2-yl)-6-(5-cyclopropylpyrazin-2-yl)isoindolin-1-one]",> 10
–,"CC(=O)N1CCN(C(=O)c2ccc3c(c2)CN(c2cccc(-c4nncn4C4CC4)n2)C3=O)CC1 [Compound 16, 5-(4-acetylpiperazine-1-carbonyl)-2-(6-(4-cyclopropyl-4H-1,2,4-triazol-3-yl)pyridin-2-yl)isoindolin-1-one]",> 10

Molecule,IC50 (ASK1) [µM],IC50 [1] [µM]
CN(C)c1ccc2c(c1)CN(c1cccc(-c3nncn3C3CC3)n1)C2=O [Compound 34],< 0.2,–
